{"source": "patent US5565616A", "about": "(priority 1994, dated 1996)", "key": {"[1]": {"assay": "Sample pH before SCWO, after five-minute reactor residence time and after reactor cool down", "type": "physicochemical", "description": "Fourteen tests were conducted to determine the by-product distribution of DMMP during SCWO at different oxygen concentrations in the presence of additives. Test conditions and procedures were the same as described in Example 1. Additive concentrations were based on achieving a 1:1 molar ratio of Na^+ ions to DMMP. Based on an initial concentration of DMMP of 10,000 mg/L, the initial concentrations of each additive were 3,224 mg/L for NaOH, 4,271 mg/L for Na2 CO3 and 15.4 g/L for Na2 B4 O7 (as Na2 B4 O7.10H2 O).\nThe pH of each sample was measured within one hour of sample collection. The presence of the additive affected the pH of the sample collected after a five minute reactor residence time only slightly. Since the pH of the initial solution had increased upon addition of the additive, it was expected that the pH of the sample collected at supercritical conditions would also increase. However, the effect was only slightly obvious due most likely to the precipitation of the additives at supercritical conditions. After reactor cool down, the pH of samples collected after cool down increased in the presence of the additive. The pH increase which occurred between the sample collected after five minutes reactor residence time and after reactor cool down was a result of the dissolution of precipitated additive. It is believed that sodium hydroxide, sodium carbonate and sodium borate dissolved after reactor cool down and neutralized the acidic solution which was observed after the five minute reactor residence time."}, "[2]": {"from_the_text": "Calculations are based on the reported first-order reaction kinetic model"}, "[3]": {"conditions": "cited from earlier work"}, "[4]": {"conditions": "cited from earlier work; for Pyridine Conversion: 27.6 MPa"}, "[5]": {"conditions": "first-order oxidation, 24.6 MPa, 530-700 °C"}}, "note": "Where two headings read alike, the source gives them in different places.", "data": [{"compound": "O.O.O.O.O.O.O.O.O.O.[Na+].[Na+].[O-]B1OB2OB([O-])OB(O1)O2", "note": "[Na2 B4 O7, sodium borate]", "values": [{"measurement": "pH, 5 Min. Reactor Resid. Time", "setting": "[1]; hydrolysis", "result": 2.8}, {"measurement": "pH, After Reactor Cool Down", "setting": "[1]; hydrolysis", "result": 7.0}, {"measurement": "pH, Initial", "setting": "[1]; hydrolysis", "result": 9}, {"measurement": "pH, 5 Min. Reactor Resid. Time", "setting": "[1]; partial oxidation", "result": 3.2}, {"measurement": "pH, After Reactor Cool Down", "setting": "[1]; partial oxidation", "result": 7.3}, {"measurement": "pH, Initial", "setting": "[1]; partial oxidation", "result": 9}]}, {"compound": "N", "note": "[ammonia]", "values": [{"measurement": "Reactor Residence Time Required to Achieve 9% Conversion", "setting": "[2]; 400 °C", "result": 774, "unit": "min"}, {"measurement": "Reactor Residence Time Required to Achieve 90% Conversion", "setting": "[2]; 400 °C", "result": 18888, "unit": "min"}, {"measurement": "Reactor Residence Time Required to Achieve 99% Conversion", "setting": "[2]; 400 °C", "result": 37775, "unit": "min"}, {"measurement": "Reactor Residence Time Required to Achieve 99.9% Conversion", "setting": "[2]; 400 °C", "result": 56663, "unit": "min"}, {"measurement": "Reactor Residence Time Required to Achieve 99.99% Conversion", "setting": "[2]; 400 °C", "result": 75551, "unit": "min"}, {"measurement": "Reactor Residence Time Required to Achieve 9% Conversion", "setting": "[2]; 450 °C", "result": 111, "unit": "min"}, {"measurement": "Reactor Residence Time Required to Achieve 90% Conversion", "setting": "[2]; 450 °C", "result": 2710, "unit": "min"}, {"measurement": "Reactor Residence Time Required to Achieve 99% Conversion", "setting": "[2]; 450 °C", "result": 5421, "unit": "min"}, {"measurement": "Reactor Residence Time Required to Achieve 99.9% Conversion", "setting": "[2]; 450 °C", "result": 8131, "unit": "min"}, {"measurement": "Reactor Residence Time Required to Achieve 99.99% Conversion", "setting": "[2]; 450 °C", "result": 10842, "unit": "min"}, {"measurement": "Reactor Residence Time Required to Achieve 9% Conversion", "setting": "[2]; 500 °C", "result": 20, "unit": "min"}, {"measurement": "Reactor Residence Time Required to Achieve 90% Conversion", "setting": "[2]; 500 °C", "result": 500, "unit": "min"}, {"measurement": "Reactor Residence Time Required to Achieve 99% Conversion", "setting": "[2]; 500 °C", "result": 1000, "unit": "min"}, {"measurement": "Reactor Residence Time Required to Achieve 99.9% Conversion", "setting": "[2]; 500 °C", "result": 1500, "unit": "min"}, {"measurement": "Reactor Residence Time Required to Achieve 99.99% Conversion", "setting": "[2]; 500 °C", "result": 2000, "unit": "min"}, {"measurement": "Reactor Residence Time Required to Achieve 9% Conversion", "setting": "[2]; 550 °C", "result": 5, "unit": "min"}, {"measurement": "Reactor Residence Time Required to Achieve 90% Conversion", "setting": "[2]; 550 °C", "result": 113, "unit": "min"}, {"measurement": "Reactor Residence Time Required to Achieve 99% Conversion", "setting": "[2]; 550 °C", "result": 227, "unit": "min"}, {"measurement": "Reactor Residence Time Required to Achieve 99.9% Conversion", "setting": "[2]; 550 °C", "result": 340, "unit": "min"}, {"measurement": "Reactor Residence Time Required to Achieve 99.99% Conversion", "setting": "[2]; 550 °C", "result": 453, "unit": "min"}, {"measurement": "Reactor Residence Time Required to Achieve 9% Conversion", "setting": "[2]; 600 °C", "result": 0.1, "unit": "min"}, {"measurement": "Reactor Residence Time Required to Achieve 90% Conversion", "setting": "[2]; 600 °C", "result": 3, "unit": "min"}, {"measurement": "Reactor Residence Time Required to Achieve 99% Conversion", "setting": "[2]; 600 °C", "result": 7, "unit": "min"}, {"measurement": "Reactor Residence Time Required to Achieve 99.9% Conversion", "setting": "[2]; 600 °C", "result": 10, "unit": "min"}, {"measurement": "Reactor Residence Time Required to Achieve 99.99% Conversion", "setting": "[2]; 600 °C", "result": 13, "unit": "min"}, {"measurement": "reactor residence time required to convert 10% ammonia", "setting": "[2]; below 450 °C", "result": "at least two hours"}, {"measurement": "activation energy", "setting": "[3]; [5]", "result": 37.5, "unit": "kcal/mol"}, {"measurement": "pre-exponential factor", "setting": "[3]; [5]", "result": "3.16e+06", "unit": "s⁻¹"}, {"measurement": "temperature at which oxidation rate becomes appreciable", "setting": "[3]; supercritical water", "result": "greater than 550 °C"}]}, {"compound": "c1ccncc1", "note": "[pyridine]", "values": [{"measurement": "Pyridine Conversion", "setting": "[4]; Test 513: 522 °C, 6.6 sec, 1990 mg/L, O2 0.024 mole/L", "result": 74, "unit": "%"}, {"measurement": "Pyridine Conversion", "setting": "[4]; Test 516: 499 °C, 7.1 sec, 1990 mg/L, O2 0.026 mole/L", "result": 66, "unit": "%"}, {"measurement": "Pyridine Conversion", "setting": "[4]; Test 524: 499 °C, 7.1 sec, 3050 mg/L, O2 0.031 mole/L", "result": 75, "unit": "%"}, {"measurement": "Pyridine Conversion", "setting": "[4]; Test 525: 475 °C, 7.8 sec, 1990 mg/L, O2 0.029 mole/L", "result": 25, "unit": "%"}, {"measurement": "Pyridine Conversion", "setting": "[4]; Test 529: 451 °C, 8.8 sec, 3050 mg/L, O2 0.038 mole/L", "result": 6, "unit": "%"}, {"measurement": "Pyridine Conversion", "setting": "[4]; Test 541: 522 °C, 6.6 sec, 3050 mg/L, O2 0.027 mole/L", "result": 94, "unit": "%"}, {"measurement": "Pyridine Conversion", "setting": "[4]; Test 542: 474 °C, 7.8 sec, 3050 mg/L, O2 0.035 mole/L", "result": 22, "unit": "%"}, {"measurement": "Pyridine Conversion", "setting": "[4]; Test 661: 527 °C, 3.8 sec, 3530 mg/L, O2 0.010 mole/L", "result": 55, "unit": "%"}, {"measurement": "Pyridine Conversion", "setting": "[4]; Test 668: 525 °C, 3.9 sec, 3530 mg/L, O2 0.014 mole/L", "result": 53, "unit": "%"}, {"measurement": "Pyridine Conversion", "setting": "[4]; Test 676: 527 °C, 3.8 sec, 3530 mg/L, O2 0.020 mole/L", "result": 68, "unit": "%"}, {"measurement": "pyridine converted", "setting": "[4]; at 524 °C (Test No. 524)", "result": 75, "unit": "%"}]}, {"compound": "sodium hydroxide [NaOH]", "values": [{"measurement": "pH, 5 Min. Reactor Resid. Time", "setting": "[1]; hydrolysis", "result": 2.1}, {"measurement": "pH, After Reactor Cool Down", "setting": "[1]; hydrolysis", "result": 5.3}, {"measurement": "pH, Initial", "setting": "[1]; hydrolysis", "result": 12.3}, {"measurement": "pH, 5 Min. Reactor Resid. Time", "setting": "[1]; oxidation", "result": 3.6}, {"measurement": "pH, After Reactor Cool Down", "setting": "[1]; oxidation", "result": 5.0}, {"measurement": "pH, Initial", "setting": "[1]; oxidation", "result": 12.3}, {"measurement": "pH, 5 Min. Reactor Resid. Time", "setting": "[1]; partial oxidation", "result": 2.2}, {"measurement": "pH, After Reactor Cool Down", "setting": "[1]; partial oxidation", "result": 6.0}, {"measurement": "pH, Initial", "setting": "[1]; partial oxidation", "result": 12.3}]}]}
